{
  "source": "patent US20130150340A1",
  "about": "“6-(4-Hydroxy-phenyl)-1H-pyrazolo[3,4-b]pyridine-4-carboxylic acid amide derivatives as kinase inhibitors” (SANOFI, priority 2011, published 2013)",
  "data": [
    {"target": "T1, human full-length recombinant PKC βII (Homo sapiens, UniProt P05771)", "T1 construct": "Active human full-length recombinant PKC βII; purchased Invitrogen GmbH, Darmstadt, Germany", "T1 sequence (P05771 1-673 isoform P05771-2)": "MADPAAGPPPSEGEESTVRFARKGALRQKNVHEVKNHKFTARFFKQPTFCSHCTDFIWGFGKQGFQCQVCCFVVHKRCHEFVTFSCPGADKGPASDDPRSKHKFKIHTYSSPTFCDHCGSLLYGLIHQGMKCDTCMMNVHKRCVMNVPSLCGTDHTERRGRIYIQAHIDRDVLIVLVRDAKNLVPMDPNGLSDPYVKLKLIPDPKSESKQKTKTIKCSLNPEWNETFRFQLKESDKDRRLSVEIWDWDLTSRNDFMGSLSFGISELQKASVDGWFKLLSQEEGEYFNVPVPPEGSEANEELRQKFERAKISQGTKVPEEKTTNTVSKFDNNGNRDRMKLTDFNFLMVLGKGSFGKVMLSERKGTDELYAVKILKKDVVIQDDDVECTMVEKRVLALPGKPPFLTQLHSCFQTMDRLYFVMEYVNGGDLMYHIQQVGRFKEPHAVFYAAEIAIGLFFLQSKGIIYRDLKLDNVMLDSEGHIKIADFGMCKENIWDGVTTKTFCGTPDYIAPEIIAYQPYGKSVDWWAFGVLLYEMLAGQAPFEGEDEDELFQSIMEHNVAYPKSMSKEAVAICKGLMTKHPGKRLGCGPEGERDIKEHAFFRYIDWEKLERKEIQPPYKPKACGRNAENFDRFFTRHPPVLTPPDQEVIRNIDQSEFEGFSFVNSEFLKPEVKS", "assay": "Determination of PKC βII inhibition (Caliper mobility-shift kinase assay)", "format": "biochemical", "settings": "example compounds at a final concentration of 1.14 μM (±0.15 μM); 60 min incubation at 32° C.", "experimental": "Determination of PKC 3H Inhibition\nPKC βII inhibition was determined according to the following protocol:\nActive human full-length recombinant PKC βII and the peptide substrate, Fluorescein-RFARKGSLRQKNV, were purchased from Invitrogen GmbH, Darmstadt, Germany. Adenosine-5′-triphosphate (ATP), bovine serum albumine (BSA), dimethylsulphoxide (DMSO), 4-(2-hydroxyethyl)piperazine-1-ethanesulfonic acid (Hepes), Triton X-100, 1,2-Dioleoyl-sn-glycerol (DAG), L-α-Phosphatidyl-L-serine (PS), calcium chloride (CaCl2), and Pluronic F-68 were purchased from Sigma-Aldrich, Munich, Germany. Magnesium chloride, 1 M sodium hydroxide solution, 1M hydrochloric acid solution and EDTA were obtained from Merck Biosciences, Darmstadt, Germany.\nTest compounds were diluted to three times the test concentration in buffer 1 (30 mM Hepes-NaOH, pH 7.4, 0.01% Pluronic F-68 and 3% (v/v) DMSO). The PKC βII enzyme was diluted to a concentration of 30 ng/ml in buffer 2 (30 mM Hepes-NaOH, pH 7.4, 15 mM MgCl2, 150 μM CaCl2, 150 μg/ml PS, 60 μg/ml DAG, and 0.045% (w/v) Triton X-100). The peptide substrate and ATP were diluted to concentrations of 3 μM and 120 μM, respectively, in buffer 2. Two μl of the compound solution were mixed with 2 μl of the diluted enzyme in a 384-well small volume microtiter plate (Greiner, Bio-One, Frickenhausen, Germany), and the kinase reaction was initiated by addition of 2 μl of the solution containing peptide substrate and ATP. After 60 min incubation at 32° C., the reaction was stopped by addition of 20 μl of a solution containing 130 mM Hepes-NaOH, pH 7.4, 0.0195% (v/v) Brij-35, 6.5 mM EDTA, 0.13% chip coating reagent 3 (Caliper Lifescience Inc, Hopkinton, Mass.) and 6.5% (v/v) DMSO. Phosphorylation of the substrate peptide was then detected on a Caliper 3000 instrument essentially as described by Pommereau et al (J. Biomol. Screening 2004, 9(5), […]), Separation conditions were as follows: Pressure −0.8 psi, upstream voltage −3000 V, downstream voltage −800 V. Positive controls (buffer 1 instead of compound) and negative controls (buffer 1 instead of compound and buffer 2 instead of kinase solution) were run in parallel on each plate. Fractional turnover (R) was determined as the height of the peak of the phosphorylated peptide product divided by the sum of the unphosphorylated substrate and phosphorylated product peak heights. Percent-inhibition values for the test compounds were determined using the formula\n% Inhibition=100*(1−(Rcompound−Rnegative control)/(Rpositive control−Rnegative control).", "units": {"inhibition at 1.14 µM": "%"}, "values": [
      {"smiles": "O=C(NC1CC2(CCNCC2)c2ccccc21)c1cc(-c2ccc(O)cc2)nc2[nH]ncc12", "note": "(centres unmarked) [Example 50, 6-(4-hydroxy-phenyl)-1H-pyrazolo[3,4-b]pyridine-4-carboxylic acid (2,3-dihydrospiro[1H-indene-1,4′-piperidin]-3-yl)-amide]", "inhibition at 1.14 µM": 97},
      {"smiles": "O=C(c1cc(-c2ccc(O)cc2)nc2[nH]ncc12)N1CCN(C(=O)C2CC2)CC1", "note": "[Example 57, (4-Cyclopropanecarbonyl-piperazin-1-yl)-[6-(4-hydroxy-phenyl)-1H-pyrazolo[3,4-b]pyridin-4-yl]-methanone]", "inhibition at 1.14 µM": 28},
      {"smiles": "CC(=O)N1CCCN(C(=O)c2cc(-c3ccc(O)cc3)nc3[nH]ncc23)CC1", "note": "[Example 59, 1-{4-[6-(4-Hydroxy-phenyl)-1H-pyrazolo[3,4-b]pyridine-4-carbonyl]-[1,4]diazepan-1-yl}-ethanone]", "inhibition at 1.14 µM": 48},
      {"smiles": "O=C(c1cc(-c2ccc(O)cc2)nc2[nH]ncc12)N1CCC2(CCCNC2)C1", "note": "(centres unmarked) [Example 23, (2,7-Diaza-spiro[4.5]dec-2-yl)-[6-(4-hydroxy-phenyl)-1H-pyrazolo[3,4-b]pyridin-4-yl]-methanone]", "inhibition at 1.14 µM": 52},
      {"smiles": "CN1CCCC(NC(=O)c2cc(-c3ccc(O)cc3)nc3[nH]ncc23)C1", "note": "(centres unmarked) [Example 41, 6-(4-Hydroxy-phenyl)-1H-pyrazolo[3,4-b]pyridine-4-carboxylic acid (1-methyl-piperidin-3-yl)-amide]", "inhibition at 1.14 µM": 73},
      {"smiles": "NC1CCN(C(=O)c2cc(-c3ccc(O)cc3)nc3[nH]ncc23)C1", "note": "(centres unmarked) [Example 45, (3-Amino-pyrrolidin-1-yl)-[6-(4-hydroxy-phenyl)-1H-pyrazolo[3,4-b]pyridin-4-yl]-methanone]", "inhibition at 1.14 µM": 50},
      {"smiles": "O=C(c1cc(-c2ccc(O)cc2)nc2[nH]ncc12)N1CCN(C(=O)C2CCCO2)CC1", "note": "(centres unmarked) [Example 61, [6-(4-Hydroxy-phenyl)-1H-pyrazolo[3,4-b]pyridin-4-yl]-[4-(tetrahydro-furan-2-carbonyl)-piperazin-1-yl]-methanone]", "inhibition at 1.14 µM": 22},
      {"smiles": "O=C(c1cc(-c2ccc(O)cc2)nc2[nH]ncc12)N1CCC2(CNCCO2)C1", "note": "(centres unmarked) [Example 31, [6-(4-Hydroxy-phenyl)-1H-pyrazolo[3,4-b]pyridin-4-yl]-(6-oxa-2,9-diaza-spiro[4.5]dec-2-yl)-methanone]", "inhibition at 1.14 µM": 53},
      {"smiles": "CC(=O)N1CCN(C(=O)c2cc(-c3ccc(O)cc3)nc3[nH]ncc23)CC1", "note": "[Example 53, 1-{4-[6-(4-Hydroxy-phenyl)-1H-pyrazolo[3,4-b]pyridine-4-carbonyl]-piperazin-1-yl}-ethanone]", "inhibition at 1.14 µM": 46},
      {"smiles": "CN(C(=O)c1cc(-c2ccc(O)cc2)nc2[nH]ncc12)C1CCNCC1", "note": "[Example 42, 6-(4-Hydroxy-phenyl)-1H-pyrazolo[3,4-b]pyridine-4-carboxylic acid methyl-piperidin-4-yl-amide]", "inhibition at 1.14 µM": 39},
      {"smiles": "CN1CCC(N(C)C(=O)c2cc(-c3ccc(O)cc3)nc3[nH]ncc23)CC1", "note": "[Example 73, 6-(4-Hydroxy-phenyl)-1H-pyrazolo[3,4-b]pyridine-4-carboxylic acid methyl-(1-methyl-piperidin-4-yl)-amide]", "inhibition at 1.14 µM": 31},
      {"smiles": "O=C(c1cc(-c2ccc(O)cc2)nc2[nH]ncc12)N1CCCC2(CNCCO2)C1", "note": "(centres unmarked) [Example 28, [6-(4-Hydroxy-phenyl)-1H-pyrazolo[3,4-b]pyridin-4-yl]-(1-oxa-4,8-diaza-spiro[5.5]undec-8-yl)-methanone]", "inhibition at 1.14 µM": 15},
      {"smiles": "O=C(NC1CNC1)c1cc(-c2ccc(O)cc2)nc2[nH]ncc12", "note": "[Example 35, 6-(4-Hydroxy-phenyl)-1H-pyrazolo[3,4-b]pyridine-4-carboxylic acid azetidin-3-ylamide]", "inhibition at 1.14 µM": 82},
      {"smiles": "CO[C@H]1CNC[C@@H]1NC(=O)c1cc(-c2ccc(O)cc2)nc2[nH]ncc12", "note": "[Example 6, 6-(4-Hydroxy-phenyl)-1H-pyrazolo[3,4-b]pyridine-4-carboxylic acid ((3S,4S)-4-methoxy-pyrrolidin-3-yl)-amide]", "inhibition at 1.14 µM": 87},
      {"smiles": "O=C(c1cc(-c2ccc(O)cc2)nc2[nH]ncc12)N1CCC2(CC1)CNC2", "note": "[Example 21, (2,7-Diaza-spiro[3.5]non-7-yl)-[6-(4-hydroxy-phenyl)-1H-pyrazolo[3,4-b]pyridin-4-yl]-methanone]", "inhibition at 1.14 µM": 59},
      {"smiles": "CCN1CCCC(NC(=O)c2cc(-c3ccc(O)cc3)nc3[nH]ncc23)C1", "note": "(centres unmarked) [Example 60, 6-(4-Hydroxy-phenyl)-1H-pyrazolo[3,4-b]pyridine-4-carboxylic acid (1-ethyl-piperidin-3-yl)-amide]", "inhibition at 1.14 µM": 54},
      {"smiles": "O=C(c1cc(-c2ccc(O)cc2)nc2[nH]ncc12)N1CCC[C@H]1CN1CCCC1", "note": "[Example 54, [6-(4-Hydroxy-phenyl)-1H-pyrazolo[3,4-b]pyridin-4-yl]-((S)-2-pyrrolidin-1-ylmethyl-pyrrolidin-1-yl)-methanone]", "inhibition at 1.14 µM": 20}
    ]}
  ]
}
